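Compound exposure: 48 hours, 5 concentrations, 96-well plates. GI50 marks 50% less growth.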 Active and inactive are the calls of the source. Rule as the data show it: active = GI50 up to about 1.1 µM and inactive = higher.
What was measured:
Test in all cases: NCI-60 cell line screen, 48 h
UACC-62 = tested on: UACC-62
Hs-578T = tested on: Hs-578T
NCI/ADR-RES = tested on: NCI/ADR-RES
HOP-92 = tested on: HOP-92
MCF7 = tested on: MCF7
HL-60 = tested on: HL-60
SK-OV-3 = tested on: SK-OV-3
COLO 205 = tested on: COLO 205
TK-10 = tested on: TK-10
MDA-MB-231 = tested on: MDA-MB-231
SR = tested on: SR
SW-620 = tested on: SW-620
SNB-75 = tested on: SNB-75
A498 = tested on: A498
HT-29 = tested on: HT-29
NCI-H23 = tested on: NCI-H23
IGROV-1 = tested on: IGROV-1
SK-MEL-2 = tested on: SK-MEL-2
MDA-MB-435 = tested on: MDA-MB-435
UACC-257 = tested on: UACC-257

Row | SMILES | GI50 (UACC-62) | GI50 (Hs-578T) | GI50 (NCI/ADR-RES) | GI50 (HOP-92) | GI50 (MCF7) | GI50 (HL-60) | GI50 (SK-OV-3) | GI50 (COLO 205) | GI50 (TK-10) | GI50 (MDA-MB-231) | GI50 (SR) | GI50 (SW-620) | GI50 (SNB-75) | GI50 (A498) | GI50 (HT-29) | GI50 (NCI-H23) | GI50 (IGROV-1) | GI50 (SK-MEL-2) | GI50 (MDA-MB-435) | GI50 (UACC-257)
1 | CC(C)(C)COS(=O)OCC(C)(C)C | > 100 µM (inactive) | > 100 µM (inactive) | > 100 µM (inactive) | > 100 µM (inactive) | > 100 µM (inactive) | > 100 µM (inactive) | > 100 µM (inactive) | > 100 µM (inactive) | > 100 µM (inactive) | > 100 µM (inactive) | > 100 µM (inactive) | > 100 µM (inactive) | > 100 µM (inactive) | > 100 µM (inactive) | > 100 µM (inactive) | > 100 µM (inactive) | > 100 µM (inactive) | > 100 µM (inactive) | > 100 µM (inactive) | > 100 µM (inactive)
2 | O=C(NC(=O)c1c(F)cccc1F)Nc1cccc(Oc2ncc(Cl)cn2)c1 | 36.6 µM (inactive) | 35.2 µM (inactive) | > 23.3 µM (inactive) | 16.6 µM (inactive) | > 100 µM (inactive) | 3.51 µM (inactive) | 19.3 µM (inactive) | 3.85 µM (inactive) | > 100 µM (inactive) | > 71.6 µM (inactive) | 6.1 µM (inactive) | 4.3 µM (inactive) | 19.5 µM (inactive) | > 76.6 µM (inactive) | 4.59 µM (inactive) | > 100 µM (inactive) | 33.4 µM (inactive) | > 51.6 µM (inactive) | 1.63 µM (inactive) | > 100 µM (inactive)
3 | Nc1ccc(Sc2c3ccccc3nc3ccccc23)cc1 | 15.2 µM (inactive) | 25.6 µM (inactive) | 7.73 µM (inactive) | 10.1 µM (inactive) | 12.4 µM (inactive) | 2.96 µM (inactive) | 22.3 µM (inactive) | 11.5 µM (inactive) | 13.4 µM (inactive) | 14.7 µM (inactive) | 3.74 µM (inactive) | 10.4 µM (inactive) | 17.1 µM (inactive) | 68.5 µM (inactive) | 15.8 µM (inactive) | 17.7 µM (inactive) | 17.7 µM (inactive) | 16.9 µM (inactive) | 17.2 µM (inactive) | 16.6 µM (inactive)
4 | CCOC(=O)CCC(NC(=O)c1ccc(Oc2nc3ccc(C(F)(F)F)cc3nc2-c2ccccc2)cc1)C(=O)OCC (stereo not given) | 23.1 µM (inactive) | 3.33 µM (inactive) | 15.5 µM (inactive) | 18.9 µM (inactive) | > 41.5 µM (inactive) | > 100 µM (inactive) | 15 µM (inactive) | > 100 µM (inactive) | 15.1 µM (inactive) | 8.13 µM (inactive) | > 100 µM (inactive) | > 100 µM (inactive) | 9.46 µM (inactive) | 16.4 µM (inactive) | 5.15 µM (inactive) | 16.8 µM (inactive) | 22.7 µM (inactive) | 22.8 µM (inactive) | > 100 µM (inactive) | > 64.7 µM (inactive)
5 | O=C1C=CC2(C=C1)O[C@H](CCc1ccccc1)[C@@H](CCc1ccccc1)O2 | > 100 µM (inactive) | > 100 µM (inactive) | > 100 µM (inactive) | 21.9 µM (inactive) | > 100 µM (inactive) | > 100 µM (inactive) | > 100 µM (inactive) | > 100 µM (inactive) | > 100 µM (inactive) | > 100 µM (inactive) | > 100 µM (inactive) | > 100 µM (inactive) | > 100 µM (inactive) | > 100 µM (inactive) | > 100 µM (inactive) | > 100 µM (inactive) | 98.9 µM (inactive) | > 100 µM (inactive) | 27.9 µM (inactive) | > 100 µM (inactive)
6 | CCOP(=O)(OCC)/C(C#N)=C(\C)c1ccco1 | > 10 µM (inactive) | > 10 µM (inactive) | > 10 µM (inactive) | > 10 µM (inactive) | > 10 µM (inactive) | > 10 µM (inactive) | > 10 µM (inactive) | > 10 µM (inactive) | > 10 µM (inactive) | > 10 µM (inactive) | > 10 µM (inactive) | > 10 µM (inactive) | > 10 µM (inactive) | > 10 µM (inactive) | > 10 µM (inactive) | > 10 µM (inactive) | > 10 µM (inactive) | > 10 µM (inactive) | > 10 µM (inactive) | > 10 µM (inactive)
7 | O=C(ON=c1c2ccccc2ccc2ccccc12)c1ccccc1 | 16.2 µM (inactive) | 22.2 µM (inactive) | 21.2 µM (inactive) | 26.2 µM (inactive) | 24 µM (inactive) | 6.28 µM (inactive) | 56 µM (inactive) | 18.1 µM (inactive) | > 75.9 µM (inactive) | 22.9 µM (inactive) | 8.39 µM (inactive) | 18.1 µM (inactive) | 26.5 µM (inactive) | 22.1 µM (inactive) | 28.2 µM (inactive) | 37.5 µM (inactive) | 24 µM (inactive) | 30.1 µM (inactive) | 20.7 µM (inactive) | 27.6 µM (inactive)
8 | COC(=O)[C@H]1[C@H](C(=O)OC)[C@@H](C)c2c(ccc3c2[nH]c2ccccc23)[C@@H]1C | > 100 µM (inactive) | 31.1 µM (inactive) | > 100 µM (inactive) | 37.9 µM (inactive) | 43.4 µM (inactive) | 5.81 µM (inactive) | 92.9 µM (inactive) | 66.7 µM (inactive) | 26.4 µM (inactive) | 25.6 µM (inactive) | 0.521 µM (active) | 95.1 µM (inactive) | 19.7 µM (inactive) | > 100 µM (inactive) | 19.1 µM (inactive) | 41.2 µM (inactive) | 71.9 µM (inactive) | 34.1 µM (inactive) | > 100 µM (inactive) | 19.4 µM (inactive)
9 | NCCCCNC1(c2cc3ccccc3s2)CCCCC1 | 1.91 µM (inactive) | 4.51 µM (inactive) | 6.9 µM (inactive) | 5.32 µM (inactive) | 2.88 µM (inactive) | 3.09 µM (inactive) | 14.5 µM (inactive) | 1.74 µM (inactive) | 3.87 µM (inactive) | 3.22 µM (inactive) | 1.49 µM (inactive) | 3.54 µM (inactive) | 3.27 µM (inactive) | 2.16 µM (inactive) | 2.42 µM (inactive) | 14.2 µM (inactive) | 3.08 µM (inactive) | 1.88 µM (inactive) | 1.82 µM (inactive) | 1.84 µM (inactive)
10 | CCN(CC)CCOC(=O)Cc1cccc2c(=O)cc(-c3ccccc3)oc12 | 29 µM (inactive) | 28.3 µM (inactive) | 50 µM (inactive) | 21.7 µM (inactive) | 54.1 µM (inactive) | 36.3 µM (inactive) | 48.5 µM (inactive) | 38.4 µM (inactive) | 44.1 µM (inactive) | 26.4 µM (inactive) | 24.4 µM (inactive) | 50.7 µM (inactive) | 41.7 µM (inactive) | 54.3 µM (inactive) | 44.1 µM (inactive) | 45.8 µM (inactive) | 44.6 µM (inactive) | > 150 µM (inactive) | 55.1 µM (inactive) | 54.3 µM (inactive)
11 | CC(C)C(C/C=C1/CC(CO)(COC(=O)CC(C(C)C)C(C)C)OC1=O)C(C)C (stereo not given) | 15.7 µM (inactive) | 0.102 µM (active) | 16 µM (inactive) | 0.998 µM (active) | 13.6 µM (inactive) | 0.0931 µM (active) | 16.7 µM (inactive) | 0.0811 µM (active) | 2.08 µM (inactive) | 4.21 µM (inactive) | 17.1 µM (inactive) | 0.991 µM (active) | 1.78 µM (inactive) | 2.98 µM (inactive) | 16.3 µM (inactive) | 14.7 µM (inactive) | 17.1 µM (inactive) | 15.2 µM (inactive) | 0.475 µM (active) | 16 µM (inactive)
12 | CCc1nc(N)nc(N)c1-c1ccc(N2CCNCC2)cc1 | 69 µM (inactive) | > 100 µM (inactive) | > 100 µM (inactive) | > 100 µM (inactive) | 47.3 µM (inactive) | 34.4 µM (inactive) | > 100 µM (inactive) | 18.9 µM (inactive) | > 100 µM (inactive) | > 93.3 µM (inactive) | 23.4 µM (inactive) | 56.5 µM (inactive) | > 100 µM (inactive) | > 97.1 µM (inactive) | 38.6 µM (inactive) | 46 µM (inactive) | 64.7 µM (inactive) | > 100 µM (inactive) | 59.8 µM (inactive) | 33.2 µM (inactive)

Reference: ChEMBL document CHEMBL1201862, “PubChem BioAssay data set” (2004)
